The values that follow come from US7772253B2 (Hoffman-La Roche Inc., priority 2005, dated 2010).

The structures appear in SMILES notation.

The target in the assay is T1, human subtype 5 somatostatin receptor (Homo sapiens, UniProt P35346).
T1 construct: host or cells: CHO cell line, stably transfected; membranes
T1 sequence (P35346 whole entry): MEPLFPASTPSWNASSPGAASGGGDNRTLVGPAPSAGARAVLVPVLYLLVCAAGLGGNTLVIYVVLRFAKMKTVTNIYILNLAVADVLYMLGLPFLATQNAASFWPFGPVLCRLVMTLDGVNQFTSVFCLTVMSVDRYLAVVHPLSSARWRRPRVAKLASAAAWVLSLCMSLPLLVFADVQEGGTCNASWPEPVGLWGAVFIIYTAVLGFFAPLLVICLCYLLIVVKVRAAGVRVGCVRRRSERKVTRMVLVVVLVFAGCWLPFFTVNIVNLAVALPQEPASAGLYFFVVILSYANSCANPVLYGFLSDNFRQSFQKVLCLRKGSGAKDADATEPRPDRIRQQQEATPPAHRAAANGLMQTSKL
Nature of the assay: Binding of 125-I-labeled 11-Tyr somatostatin-14 tracer to membranes of CHO cells expressing SSTR5. The following applies: CHO cell membranes, Ki calculated from IC50 by Cheng-Prussoff equation. As for the experimental part:
A CHO cell line stably transfected with a plasmid encoding the human subtype 5 somatostatin receptor (GenBank accession number D16827) was obtained from Euroscreen. Cells were cultured and used for binding and functional assays.
Membranes of these cells were prepared by sonication in the presence of protease inhibitors and subsequent fractionating centrifugation. The protein concentration in the membrane preparation was determined using a commercial kit (BCA kit, Pierce, USA). Membranes were stored at −80° C. until use. After thawing, membranes were diluted in assay buffer (50 mM TRIS-HCl at pH 7.4, 5 mM MgCl2 and 0.20% BSA (bovine serum albumine)) and subjected to dounce homogenization.
For binding studies, 0.1 ml membrane suspension, corresponding to app. 6×10^−15 mol receptor, was incubated for 1 hour at room temperature with 0.05 nM ^125-I-labeled tracer (11-Tyr somatostatin-14, Perkin-Elmer) and either test compounds in varying concentrations or, for the determination of non-specific binding, 0.001 mM non-labeled somatostatin-14 (Sigma-Aldrich, Buchs, Switzerland). The incubation was stopped by filtration through GF/B glassfiber filters (Unifilter, Perkin-Elmer) and washing with ice-cold wash buffer (50 mM Tris-HCl at pH 7.4). The bound radioactivity was measured after application of a scintillation cocktail (Microscint 40, Perkin-Elmer) and expressed as disintegrations per minute (dpm).
The receptor concentration was determined in a prior saturation experiment where a fixed, arbitrary amount of membranes was incubated with a concentration range of radio-labeled tracer. This allows estimating the total number of specific binding sites per amount of protein (i.e. Bmax), typically between 1 and 5 pmol/mg.
The concentration of the test compound required to result in half maximal inhibition of binding of the radio-labeled tracer (IC50) was estimated from a concentration-versus-dpm graph. The binding affinity (Ki) was calculated from the IC50 by applying the Cheng-Prussoff equation for single binding sites.
Turning to `CCOC(=O)c1c(OCC)cc(CN2CCC(NC(=O)c3cncc(C)c3)CC2)cc1OCC` [Example 35, N-[1-(3,5-Diethoxy-4-ethoxycarbonyl-benzyl)piperidin-4-yl]-5-methyl-nicotinamide], the Ki (as a rule, a dissociation constant, usually derived from enzyme kinetics or from competition with a known ligand) was 19 nM.

On to `CCOc1cc(CN2CCC(NC(=O)c3cccc(C(N)=O)c3)CC2)ccc1Cl` [Example 6], for which the inhibition constant (Ki) was 126 nM. The figure for `CCOc1cc(CN2CCC(NC(=O)c3cncc(C)c3)CC2)ccc1Cl` [Example 30, N-[1-(4-Chloro-3-ethoxy-benzyl)piperidin-4-yl]-5-methyl-nicotinamide] is 38 nM.
